Data as given in the PolyMetriX glass transition set.
± gives the standard deviation of the reports.

| SMILES | glass transition temperature |
| --- | --- |
| */N=N/c1ccc(C(=O)NCCCCNC(=O)c2ccc(*)cc2)cc1 (repeat unit) | 215.00 °C |
| *CC(*)P(=O)(c1ccccc1)c1ccccc1 (repeat unit) | 127.50 °C |
| */C=C(/*)CCCOc1ccc(OC(=O)c2ccc(OCCCCCCCC)cc2)cc1 (repeat unit) | 42.00 °C |
| *C(=O)c1cccc(C(=O)N2CCN(*)CC2)c1 (repeat unit) | 214.50 °C |
| *CCCCCCC(=O)N* (repeat unit) | 52.00 °C |
| *CC(c1ccccc1)C1C(=O)NC(=O)C1* (repeat unit) | 246.00 °C |
| *c1ccc(S(*)(=O)=O)cc1 (repeat unit) | 219.50 °C |
| *Oc1ccc(CC(NC(=O)CCc2ccc(OC(=O)CCC(*)=O)cc2)C(=O)OCCCCCC)cc1 (repeat unit) | 53.00 °C |
| *CC(*)CCCCCCC (repeat unit) [Poly(heptylethylene)] | -47.58 ± 0.8 °C |
| *CC(*)(C)C(=O)OCCCCCCCCCCOc1ccc(C#Cc2cc(C)c(/C=C/c3ccncc3)cc2C)cc1 (repeat unit) | 65.40 °C |
| *C1C(=O)N(c2ccccc2C(=O)OC)C(=O)C1* (repeat unit) | 259.00 °C |
| *CC(*)c1ccc(CCCCCCCCCCCCCC)cc1 (repeat unit) | -36.00 °C |
| *Oc1ccc(C(=O)OCC(C)(C)COC(=O)c2ccc(*)cc2)cc1 (repeat unit) | 73.00 °C |
| *CCOCCOC(=O)O* (repeat unit) | -27.00 °C |
| *CC(*)(CC(=O)OC)C(=O)OC (repeat unit) | 95.00 °C |
| *OC(C)COC(*)=O (repeat unit) [Poly(propylene carbonate)] | 35.73 ± 1.6 °C |
| *CCCCCNC(=O)c1ccc(C(=O)N*)cc1 (repeat unit) | 177.00 °C |
| *CC(*)(C)C(=O)OC1COC(CP(=O)(OCC)OCC)OC1 (repeat unit) | 101.50 °C |
| *CCCCCCCCCOC(=O)NCCCCCCNC(=O)O* (repeat unit) | 58.00 °C |
| *CCCCCCOC(=O)O* (repeat unit) | -42.00 °C |
| *CC(*)(C)C(=O)OCCCCOc1ccc(/N=N/c2ccc(C#N)cc2)cc1 (repeat unit) | 80.00 °C |
| *CC(*)OCCCCCC (repeat unit) [Poly(hexyl vinyl ether)] | -69.58 ± 5.8 °C |

| SMILES | glass transition temperature |
| --- | --- |
| *CC(*)(C)C(=O)OCCCCCC(=O)Oc1ccc(OC(=O)c2ccc(OCCCC)cc2)cc1 (repeat unit) | 40.00 °C |
| *CCOC(=O)CCCCCCCC(=O)O* (repeat unit) | -45.00 °C |
| *CCN(CCOC(=O)NCCCCCCNC(=O)O*)c1ccc(/N=N/c2ccc([N+](=O)[O-])cc2)c(C)c1 (repeat unit) | 75.00 °C |
| *CC(*)c1cc(C)c(C)cc1C (repeat unit) | 104.00 °C |
| *Oc1cc(OC(=O)c2ccc(OCCC)cc2)c(OC(=O)CCCCCCCCCCCCCCC(*)=O)cc1OC(=O)c1ccc(OCCC)cc1 (repeat unit) | 18.00 °C |
| *Oc1ccc(OC(=O)c2cc(OCCCCCCCCCCC(F)(F)C(F)(F)C(F)(F)C(F)(F)C(F)(F)C(F)(F)C(F)(F)C(F)(F)C(F)(F)C(F)(F)F)cc(C(*)=O)c2)cc1 (repeat unit) | 137.00 °C |
| *CC1CCC(COC(C)OC(=O)c2ccc(C(=O)OC(C)O*)c3ccccc23)CC1 (repeat unit) | 60.00 °C |
| *Oc1ccc(NC(=O)CCCCCC(=O)Nc2ccc(*)cc2)cc1 (repeat unit) | 180.00 °C |
| *CC(CO)(CO)CO* (repeat unit) | 99.00 °C |
| *N=P(N=P(N=S(*)(=O)NCCCCCC)(NCCCCCC)NCCCCCC)(NCCCCCC)NCCCCCC (repeat unit) | -18.00 °C |
| */C=C/c1sc(-c2ccc(-c3ccc(-c4ccc(-c5sc(/C=C/C6=CC(=C(C#N)C#N)C=C(*)O6)c(CCCCCC)c5CCCCCC)s4)s3)s2)c(CCCCCC)c1CCCCCC (repeat unit) | 134.00 °C |
| *CCCCCCOc1ccc(/C=C/c2ccc(O*)c3ccccc23)cc1 (repeat unit) | 78.00 °C |
| *CCCCOC(=O)Nc1ccc(Cc2ccc(NC(=O)O*)cc2)cc1 (repeat unit) | 109.00 °C |
| *CC(*)C1CCCCC1C (repeat unit) | 186.00 °C |
| *Nc1ccc(Cc2ccc(NC(=O)c3ccc(P(=O)(c4ccccc4)c4ccc(C(*)=O)cc4)cc3)cc2)cc1 (repeat unit) | 307.00 °C |
| *CCCCCCCCNC(=O)c1ccc(C(=O)N*)c(Sc2ccccc2)c1 (repeat unit) | 110.00 °C |
| *CCCCCCNC(=O)CCc1ccc(CCC(=O)N*)cc1 (repeat unit) | 85.00 °C |
| *Oc1ccc(C(C)(CC)c2ccc(OC(*)=O)cc2)cc1 (repeat unit) | 136.00 °C |
| *CCC(=O)NCc1c(C)c(C)c(CNC(=O)CCO*)c(C)c1C (repeat unit) | 191.00 °C |
| *CCCCCCNC(=O)CCc1ccc(CC(=O)N*)cc1 (repeat unit) | 87.00 °C |
| *CC(C)(CO*)COCCCCCCCCCCOc1ccc(-c2ccc(C#N)cc2)cc1 (repeat unit) | 7.00 °C |

Next, values leading:

| glass transition temperature | SMILES |
| --- | --- |
| 266.00 °C | *c1ccc2c(c1)C(=O)N(c1ccc(Oc3ccc(C(=O)c4ccc(Oc5ccc(N6C(=O)c7ccc(C(*)(C(F)(F)F)C(F)(F)F)cc7C6=O)cc5)cc4)cc3)cc1)C2=O (repeat unit) |
| 317.00 °C | *c1cccc(-c2nc3cc(-c4ccc5nc(*)c(-c6ccc7ccccc7c6)nc5c4)ccc3nc2-c2ccc3ccccc3c2)c1 (repeat unit) |
| 185.00 °C | *c1ccc(Oc2ccc(C(C)(C)c3ccc(Oc4ccc(-c5ncc(*)o5)cc4C(F)(F)F)cc3)cc2)c(C(F)(F)F)c1 (repeat unit) |
| 317.00 °C | *C(=O)c1ccc2c(c1)C(=O)N(c1ccc(Cc3ccc(Cc4cccc(N5C(=O)c6ccc(*)cc6C5=O)c4)cc3)cc1)C2=O (repeat unit) |
| 145.00 °C | *c1ccc(Nc2ccc(Nc3ccc(S(*)(=O)=O)cc3)cc2)cc1 (repeat unit) |
| 218.20 °C | *Nc1ccc(-c2ccc(NC(=O)c3cccc(C(*)=O)c3)c(OC)c2)cc1OC (repeat unit) |
| 161.00 °C | *c1ccc2c(c1)C(=O)N(c1cc(OCCCCCCCCCCCCCCCC)cc(N3C(=O)c4ccc(C(*)(C(F)(F)F)C(F)(F)F)cc4C3=O)c1)C2=O (repeat unit) |
| 365.00 °C | *c1ccc(C(c2ccc(N3C(=O)c4cc(-c5ccc([Si](C)(C)C)cc5)c(-c5cc6c(cc5-c5ccc([Si](C)(C)C)cc5)C(=O)N(*)C6=O)cc4C3=O)cc2)(C(F)(F)F)C(F)(F)F)cc1 (repeat unit) |
| 317.00 °C | *c1ccc(Oc2ccc(-c3ccc(-c4ccc(Oc5ccc(-c6c7c(c(*)c8ccccc68)C(=O)N(c6ccccc6)C7=O)cc5)c(C(F)(F)F)c4)cc3)cc2C(F)(F)F)cc1 (repeat unit) |
| 264.00 °C | *c1ccc(Oc2ccccc2N2C(=O)c3ccc(Oc4ccc5c(c4)C(=O)N(*)C5=O)cc3C2=O)cc1 (repeat unit) |
| 230.00 °C | *Oc1ccc(S(=O)(=O)c2ccc(Oc3ccc(C4(c5ccc(*)cc5)CCCC4)cc3)cc2)cc1 (repeat unit) |
| 265.00 °C | *C(=S)Nc1ccc(Oc2ccc(NC(=S)n3c(=O)c4cc5c(=O)n(*)c(=O)c5cc4c3=O)cc2)cc1 (repeat unit) |
| 293.00 °C | *c1ccc(Oc2ccc(N3C(=O)C(c4ccccc4)=C(c4ccc(C5=C(c6ccccc6)C(=O)N(*)C5=O)cc4)C3=O)cc2)cc1 (repeat unit) |
| 159.00 °C | *Oc1ccc(C(c2ccc(Oc3ccc(C(=O)c4cccc(-c5cccc(C(=O)c6ccc(*)cc6)c5)c4)cc3)cc2)(C(F)(F)F)C(F)(F)F)cc1 (repeat unit) |
| 274.00 °C | *c1ccc(Oc2ccc(N3C(=O)c4ccc([Si](C)(C)c5ccc6c(c5)C(=O)N(*)C6=O)cc4C3=O)cc2)cc1 (repeat unit) |
| 250.00 °C | *C(=O)Nc1ccc(C(c2ccc(NC(=O)c3ccc4c(c3)C(=O)N(c3c(C)cc(C)c(N5C(=O)c6ccc(*)cc6C5=O)c3C)C4=O)cc2)(C(F)(F)F)C(F)(F)F)cc1 (repeat unit) |
| 195.00 °C | *Oc1ccc(-c2ccc(Oc3ccc(/C(=N/c4ccc(/N=C(\c5ccccc5)c5ccc(*)cc5)cc4)c4ccccc4)cc3)cc2)cc1 (repeat unit) |
| 111.00 °C | *Oc1cccc(N(c2ccccc2)c2ccc(-c3ccc(N(c4ccc(/N=N/c5ccc([N+](=O)[O-])cc5)cc4)c4cccc(OC(=O)OCCOCCOC(*)=O)c4)cc3)cc2)c1 (repeat unit) |
| 285.00 °C | *c1ccc(OC(=O)c2cccc(C(=O)Oc3ccc(C4(*)c5ccccc5C(=O)N4C)cc3)c2)cc1 (repeat unit) |
| 123.00 °C | *CC(*)(C)C(=O)OCCN(C)c1ccc(/N=N/c2ccc(S(=O)(=O)Nc3cc(C)on3)cc2)cc1 (repeat unit) |
| 428.00 °C | *Oc1ccc(C2(c3ccc(Oc4ccc5c(=O)n6c7cc(-c8ccc9c(c8)nc8c%10ccc(*)c%11cccc(c(=O)n98)c%11%10)ccc7nc6c6cccc4c56)cc3)c3ccccc3C(=O)c3ccccc32)cc1 (repeat unit) |
| 355.50 ± 19 °C | *c1ccc2c(c1)C(=O)N(c1ccc(N3C(=O)c4ccc(C(*)(C(F)(F)F)C(F)(F)F)cc4C3=O)cc1)C2=O (repeat unit) |
| 490.00 °C | *c1cc2c(cc1C)-c1cc(C)c(N3C(=O)c4ccc(-c5ccc6c(c5)C(=O)N(*)C6=O)cc4C3=O)cc1S2(=O)=O (repeat unit) |
| 157.00 °C | *Oc1ccc(C(=O)c2ccc(C(=O)c3ccc(*)cc3)cc2)cc1 (repeat unit) |
| 185.00 °C | *Oc1ccc(C(c2ccc(Oc3ccc(C(=O)c4ccc(C(c5ccc(C(=O)c6ccc(*)cc6)cc5)(C(F)(F)F)C(F)(F)F)cc4)cc3)cc2)(C(F)(F)F)C(F)(F)F)cc1 (repeat unit) |
